IC50 data for 22 molecules are collected here from ChEMBL document CHEMBL1139937, “Novel 3-galloylamido-N'-substituted-2,6-piperidinedione-N-acetamide peptidomimetics as metalloproteinase inhibitors” (Bioorg Med Chem Lett, 2007).

Assay [1] deals with T1, Aminopeptidase N (Sus scrofa, UniProt P15145).
T1 sequence (P15145 whole entry): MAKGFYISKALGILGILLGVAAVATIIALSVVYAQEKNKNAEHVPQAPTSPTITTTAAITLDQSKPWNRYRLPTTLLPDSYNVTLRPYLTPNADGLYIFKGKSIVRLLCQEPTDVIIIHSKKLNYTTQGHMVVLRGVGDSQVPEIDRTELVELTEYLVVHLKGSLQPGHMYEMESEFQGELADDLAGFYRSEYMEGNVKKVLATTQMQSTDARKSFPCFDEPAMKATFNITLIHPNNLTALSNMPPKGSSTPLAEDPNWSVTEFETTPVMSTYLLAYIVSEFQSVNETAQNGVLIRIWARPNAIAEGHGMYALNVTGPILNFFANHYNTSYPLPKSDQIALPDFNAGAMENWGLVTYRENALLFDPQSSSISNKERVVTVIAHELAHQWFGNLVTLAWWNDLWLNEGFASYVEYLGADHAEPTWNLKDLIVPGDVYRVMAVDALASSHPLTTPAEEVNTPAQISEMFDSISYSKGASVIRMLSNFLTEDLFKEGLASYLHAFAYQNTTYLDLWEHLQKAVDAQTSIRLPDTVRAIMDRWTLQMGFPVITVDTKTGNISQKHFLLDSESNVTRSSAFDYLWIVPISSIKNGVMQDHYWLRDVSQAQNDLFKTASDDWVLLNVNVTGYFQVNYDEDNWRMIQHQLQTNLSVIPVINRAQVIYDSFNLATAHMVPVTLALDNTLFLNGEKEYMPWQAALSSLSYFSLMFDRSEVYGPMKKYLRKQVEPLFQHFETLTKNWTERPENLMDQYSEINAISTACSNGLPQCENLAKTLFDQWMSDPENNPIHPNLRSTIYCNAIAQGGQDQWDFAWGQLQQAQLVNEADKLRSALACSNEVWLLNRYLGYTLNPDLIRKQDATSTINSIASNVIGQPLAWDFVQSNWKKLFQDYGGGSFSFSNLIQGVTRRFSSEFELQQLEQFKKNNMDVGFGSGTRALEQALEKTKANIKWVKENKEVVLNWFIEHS
In words: Inhibition of pig kidney microsomal aminopeptidase assessed as liberation of p-nitroanilide.

The target of assay [2] is 72 kDa type IV collagenase (Homo sapiens, UniProt P08253). In words: Inhibition of MMP2 after 30 mins.

Broadly, the IC50 is the concentration that gives 50% inhibition.

72 kDa type IV collagenase, sequence (P08253 whole entry): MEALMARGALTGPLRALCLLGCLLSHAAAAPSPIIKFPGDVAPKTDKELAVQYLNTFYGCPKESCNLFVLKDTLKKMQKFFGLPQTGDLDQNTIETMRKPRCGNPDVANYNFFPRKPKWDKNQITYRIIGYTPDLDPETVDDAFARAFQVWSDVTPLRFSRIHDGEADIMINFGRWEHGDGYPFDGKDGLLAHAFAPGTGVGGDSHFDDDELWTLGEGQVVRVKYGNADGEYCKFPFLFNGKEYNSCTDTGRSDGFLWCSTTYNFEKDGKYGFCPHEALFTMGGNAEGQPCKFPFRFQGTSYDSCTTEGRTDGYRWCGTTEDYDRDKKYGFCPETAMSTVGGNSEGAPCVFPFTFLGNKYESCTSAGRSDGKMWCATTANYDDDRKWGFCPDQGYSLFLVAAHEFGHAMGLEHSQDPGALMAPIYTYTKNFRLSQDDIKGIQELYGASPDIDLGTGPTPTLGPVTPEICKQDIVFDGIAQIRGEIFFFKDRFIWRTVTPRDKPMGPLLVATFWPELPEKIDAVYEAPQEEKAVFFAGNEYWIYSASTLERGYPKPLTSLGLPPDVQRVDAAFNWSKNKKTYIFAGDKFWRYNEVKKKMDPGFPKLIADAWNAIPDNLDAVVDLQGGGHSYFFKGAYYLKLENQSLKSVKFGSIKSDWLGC

With `COc1cc(C(=O)N[C@H]2CCC(=O)N(CC(=O)O)C2=O)cc(OC)c1OC`, the IC50 in assay [1] is 49.8 µM; in assay [2], 4 µM.
On the same counts, the results for `COC(=O)[C@H](CCCCNC(=O)c1ccccc1)NC(=O)CN1C(=O)CC[C@H](NC(=O)c2cc(OC)c(OC)c(OC)c2)C1=O` are 38.1 µM and 0.6 µM.
For `COC(=O)[C@@H](NC(=O)CN1C(=O)CC[C@H](NC(=O)c2cc(OC)c(OC)c(OC)c2)C1=O)[C@@H](C)O`, the half-inhibitory concentration (IC50) was 51.9 µM in assay [1] and 1.8 µM in assay [2].
With `COC(=O)[C@H](Cc1cnc[nH]1)NC(=O)CN1C(=O)CC[C@H](NC(=O)c2cc(OC)c(OC)c(OC)c2)C1=O`, the IC50 worked out at 5.2 µM in assay [1] and 13 µM in assay [2].
For `COC(=O)CNC(=O)CN1C(=O)CC[C@H](NC(=O)c2cc(OC)c(OC)c(OC)c2)C1=O`, the IC50 is 55.4 µM in assay [1] and 4.4 µM in assay [2].
With `COC(=O)[C@H](CCSC)NC(=O)CN1C(=O)CC[C@H](NC(=O)c2cc(OC)c(OC)c(OC)c2)C1=O`, the IC50 amounted to 20.7 µM in assay [1] and 1.2 µM in assay [2].
The corresponding values for `CC[C@H](C)[C@H](NC(=O)CN1C(=O)CC[C@H](NC(=O)c2cc(OC)c(OC)c(OC)c2)C1=O)C(=O)OC` are 49.3 µM and 4.3 µM.
Molecule `CC(C)C[C@H](NC(=O)[C@@H](O)[C@H](N)Cc1ccccc1)C(=O)O` [UBENIMEX] registered an IC50 in assay [2] of 3.4 µM.
Take `COC(=O)[C@@H](Cc1ccccc1)NC(=O)CN1C(=O)CC[C@H](NC(=O)c2cc(OC)c(OC)c(OC)c2)C1=O`: the figures for the IC50 in assay [1] and in assay [2] were 46.2 µM and 1.4 µM, respectively.
Consider `COC(=O)[C@H](Cc1c[nH]c2ccccc12)NC(=O)CN1C(=O)CC[C@H](NC(=O)c2cc(OC)c(OC)c(OC)c2)C1=O`, for which the IC50 in assay [1] was 43.1 µM; in assay [2], 1.2 µM.
On the same counts, the results for `COC(=O)[C@H](Cc1ccc(O)cc1)NC(=O)CN1C(=O)CC[C@H](NC(=O)c2cc(OC)c(OC)c(OC)c2)C1=O` are 44.8 µM and 0.3 µM.
Consider `COC(=O)[C@](C)(Cl)NC(=O)CN1C(=O)CC[C@H](NC(=O)c2cc(OC)c(OC)c(OC)c2)C1=O`, for which the IC50 worked out at 50 µM in assay [1] and 15.6 µM in assay [2].
In the case of `COC(=O)[C@H](CC(C)C)NC(=O)CN1C(=O)CC[C@H](NC(=O)c2cc(OC)c(OC)c(OC)c2)C1=O`, the IC50 in assay [1] was 46.2 µM; in assay [2], 3.8 µM.
On to `COC(=O)[C@H](CCCNC(N)=N[N+](=O)[O-])NC(=O)CN1C(=O)CC[C@H](NC(=O)c2cc(OC)c(OC)c(OC)c2)C1=O`, for which the IC50 was 42 µM in assay [1] and 0.3 µM in assay [2].
Take `COC(=O)[C@H](Cc1ccccc1)NC(=O)CN1C(=O)CC[C@H](NC(=O)c2cc(OC)c(OC)c(OC)c2)C1=O`: the IC50 in assay [1] came to 11 µM; in assay [2], 1.3 µM.
As for `COC(=O)[C@H](CS)NC(=O)CN1C(=O)CC[C@H](NC(=O)c2cc(OC)c(OC)c(OC)c2)C1=O`, the IC50 was 50.3 µM in assay [1] and 1.7 µM in assay [2].
With `COC(=O)[C@H](C)NC(=O)CN1C(=O)CC[C@H](NC(=O)c2cc(OC)c(OC)c(OC)c2)C1=O`, the IC50 in assay [1] is 18.9 µM; in assay [2], 1.2 µM.
In the case of `COC(=O)C[C@H](NC(=O)CN1C(=O)CC[C@H](NC(=O)c2cc(OC)c(OC)c(OC)c2)C1=O)C(=O)OC`, the IC50 in assay [1] was found to be 21.7 µM; in assay [2], 0.5 µM.
Regarding `COC(=O)[C@@H](NC(=O)CN1C(=O)CC[C@H](NC(=O)c2cc(OC)c(OC)c(OC)c2)C1=O)C(C)C`, the IC50 in assay [1] stood at 21.4 µM; in assay [2] it was 1 µM.
For the molecule `COC(=O)CN1C(=O)CC[C@H](NC(=O)c2cc(OC)c(OC)c(OC)c2)C1=O`, the figures for the IC50 in assay [1] and in assay [2] were 63.4 µM and 10.6 µM, respectively.
With `COC(=O)CCNC(=O)CN1C(=O)CC[C@H](NC(=O)c2cc(OC)c(OC)c(OC)c2)C1=O`, the IC50 in assay [1] is 53.7 µM; in assay [2], 2.2 µM.
With `COc1cc(C(=O)N[C@H]2CCC(=O)N(CC(=O)NO)C2=O)cc(OC)c1OC`, the figures for the IC50 in assay [1] and in assay [2] were 3.1 µM and 2.2 µM, respectively.
